Assay results: patent publication US10039806B2, “Methods and compositions for treating antiprogestin-resistant cancers” (Fundación Sales, priority 2011, dated 2018)

Experiments:
[1] = system: T47D-YB tumors; assay: Xenograft in NOD/LtSz-scid/IL-2Rgamma null mice; format: in vivo, human
Description: (§1) BH-6 cell line was developed from an invasive ductal breast carcinoma (1). IBH-6 cells express basal levels of hormone receptors, they are tumorigenic and in vivo express higher levels of PRB than PRA (2). Cells were transfected with human PRB, PRA (pSG5-PRB, pSG5-PRA, kindly provided by K. Horwitz) or with the empty vector (pSG5), together with a plasmid encoding the neomycin resistance gene pIRES-N1(3), using Lipofectamine transfection reagent (Invitrogen) following the manufacturer's instructions. Transfected and selected cells were cultured in medium supplemented with […] G418 (neomycin analogue, GIBCO). The expression of PRB and PRA were analyzed by western blot and immunofluorescence (using Ab7 and Ab6 antibodies from Thermo Fisher). T47D-YA or YB were kindly provided by K. Horwitz and cultured as previously described (4).
(§2) Transfected and selected cells were grown up to confluence, washed with PBS, detached with 0.25% trypsin, centrifuged at 1000 rpm for 10 min and resuspended in a final concentration of 10^6 (IBH-6) or 5×10^6 (T47D) cells per 100 μl of culture medium. The cells were sc inoculated into the right flank of nu/nu (IBH-6) or NOD/LtSz-scid/IL-2Rgamma null (T47D-YA or -YB cells) female mice. Only in experiments involving T47D cells E2 silastic pellets (0.5 mg) were implanted sc into the back of the animals one week prior tumor cell inoculation and 70 μl of Matrigel were mixed with the cell suspension at the moment of injection. MFP (6 mg) silastic pellets were sc implanted when tumors reached 20-40 mm^2. For T47D cells, experiments were repeated inoculating both cell types (T47D-YA or -YB) simultaneously in the left or right flank of the mouse, respectively.
(§3) Sections of formalin-fixed, paraffin-embedded tissue were stained with PR (C-19), or Ki67 (Dako, M7248) antibodies using the avidin-biotin-peroxidase complex technique (Vectastain Elite ABC kit; Vector), as described previously (6). Positive cells were counted in 10 high-power fields (HPFs) of each section, using 1000× magnification, and expressed as the mean±SEM of the ratio between the number of positive events and the total cell number.

[2] = system: T47D-YA tumors; assay: Xenograft in NOD/LtSz-scid/IL-2Rgamma null mice; format: in vivo, human
Description: as §1, §2, §3

[3] = system: 59-2-HI tumor; assay: MPA breast cancer model, responsive tumor in vivo; conditions: mouse
[4] = biological target: T1, glucocorticoid receptor (Homo sapiens, UniProt P04150); conditions: cited from earlier work
T1 sequence (P04150 1-777): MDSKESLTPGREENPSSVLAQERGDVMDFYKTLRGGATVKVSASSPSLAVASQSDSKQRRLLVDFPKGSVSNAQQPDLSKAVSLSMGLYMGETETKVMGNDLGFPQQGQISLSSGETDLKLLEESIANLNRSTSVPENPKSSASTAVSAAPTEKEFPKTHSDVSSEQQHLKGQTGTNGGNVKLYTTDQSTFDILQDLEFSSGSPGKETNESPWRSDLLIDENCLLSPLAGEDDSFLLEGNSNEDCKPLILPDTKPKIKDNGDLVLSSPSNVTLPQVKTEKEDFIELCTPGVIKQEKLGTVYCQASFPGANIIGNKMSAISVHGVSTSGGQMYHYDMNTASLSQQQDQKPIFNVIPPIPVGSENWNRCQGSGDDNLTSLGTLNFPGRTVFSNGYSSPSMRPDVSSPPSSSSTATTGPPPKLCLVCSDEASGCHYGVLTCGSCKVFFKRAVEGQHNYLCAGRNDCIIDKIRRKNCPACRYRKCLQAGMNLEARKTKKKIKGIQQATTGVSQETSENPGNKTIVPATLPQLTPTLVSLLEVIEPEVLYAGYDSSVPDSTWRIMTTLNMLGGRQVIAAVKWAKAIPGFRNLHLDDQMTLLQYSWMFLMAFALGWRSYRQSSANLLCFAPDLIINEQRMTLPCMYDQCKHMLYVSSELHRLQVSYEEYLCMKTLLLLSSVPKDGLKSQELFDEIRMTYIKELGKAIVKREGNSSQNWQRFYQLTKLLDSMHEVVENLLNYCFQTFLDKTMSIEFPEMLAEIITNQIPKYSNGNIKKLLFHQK

[5] = system: primary cultures of responsive tumors; conditions: cited from earlier work

CC#C[C@]1(O)CC[C@H]2[C@@H]3CCC4=CC(=O)CCC4=C3[C@@H](c3ccc(N(C)C)cc3)C[C@@]21C [RU-486, mifepristone]
tumor size ([1]; MFP pellet, E2 pellet 0.5 mg): no significant differences
nuclear MYC or CCND1 staining (IHC) ([1]; in vivo): intense nuclear staining
tumor size ([2]; MFP pellet, E2 pellet 0.5 mg, p<0.05): reduced their size
mitotic figures and apoptosis ([2]; in vivo): Few mitotic figures and a high degree of apoptosis
nuclear MYC or CCND1 expression (IHC) ([2]; in vivo): decreased levels of nuclear MYC or CCND1 expression
tumor morphology ([2]; in vivo): morphological signs of tumor regression
tumor regression (histology) [3]: the tumor regresses
antiglucocorticoid activity [4]: antiglucocorticoid effects, albeit at concentrations higher than those needed for its antiprogestin activity
MPA-induced or FGF2-induced cell proliferation ([5]; 1-100 nM): inhibited MPA-induced or FGF2-induced cell proliferation
cell proliferation at very low concentrations ([5]; 10-12 M): stimulate cell proliferation
